The values below come from PubChem BioAssay (NCI).

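Cells were grown in 96-well plates and exposed to each compound for 48 hours at five concentrations; endpoints were interpolated linearly between bracketing concentrations, or set to the highest concentration if not reached. TGI marks complete inhibition of growth.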

The assay deals with RXF-631 renal. Kind of assay: NCI anticancer screen, dose series, 48 h.
As to `COc1ccc(N=Cc2ccc(N(CCC#N)S(=O)(=O)c3ccccc3)cc2)cc1`, the TGI was above 100 µM. Then `COC(=O)C(C#CCCCCC#CC(NC(=O)OCc1ccccc1)(C(=O)OC)C(F)(F)F)(NC(=O)OCc1ccccc1)C(F)(F)F` (centres undefined), with above 100 µM. In turn, `CN(C)C(=S)/N=c1\ssc(=S)n1Cc1cccnc1` returned a TGI above 100 µM. Then `CCC12CCCN(Cc3ccccc3)C1c1c(n(C)c3ccccc13)C(C(=O)OC)C2` (centres undefined), with above 239 µM.
